{"source": "ChEMBL document CHEMBL6087405", "about": "“Discovery and optimization of anthraquinone derivatives containing substituted bisbenzyloxy groups as a novel scaffold damaged endoplasmic reticulum and against hepatocellular carcinoma cells” (Bioorg Med Chem, 2024)", "key": {"Huh-7 [1]": {"tested_on": "Huh-7", "assay": "Induction of ER stress in human Huh-7 cells assessed as increase in PERK protein level at 2 to 4 uM incubated for 48 hrs by Western blot analysis", "type": "functional, cell-based", "conditions": "dose 2-4 µM"}, "Huh-7 [2]": {"tested_on": "Huh-7", "assay": "Induction of ER stress in human Huh-7 cells assessed as increase in CHOP protein level at 2 to 4 uM incubated for 48 hrs by Western blot analysis", "type": "functional, cell-based", "conditions": "dose 2-4 µM"}, "Huh-7 [3]": {"tested_on": "Huh-7", "assay": "Induction of ER stress in human Huh-7 cells assessed as increase in PERK protein level at 4 uM incubated for 48 hrs in presence of 4pba by Western blot analysis", "type": "functional, cell-based"}, "Huh-7 [4]": {"tested_on": "Huh-7", "assay": "Induction of ER stress in human Huh-7 cells assessed as increase in CHOP protein level at 4 uM incubated for 48 hrs in presence of 4pba by Western blot analysis", "type": "functional, cell-based"}, "Huh-7 [5]": {"tested_on": "Huh-7", "assay": "Upregulation of Caspase 12 expression level in human Huh-7 cells at 2 to 4 uM measured after 48 hrs by Western blot analysis", "type": "functional, cell-based", "conditions": "dose 2-4 µM"}, "Huh-7 [6]": {"tested_on": "Huh-7", "assay": "Induction of morphological change in human Huh-7 cells assessed as appearance of condensed cell nucleus at 2 to 4 uM measured after 48 hrs by HE staining based microscopic analysis", "type": "functional", "conditions": "dose 2-4 µM"}, "Huh-7 [7]": {"tested_on": "Huh-7", "assay": "Upregulation of cleaved caspase-3 protein level in human Huh-7 cells at 2 to 4 uM by Western blot analysis", "type": "functional, cell-based", "conditions": "dose 2-4 µM"}, "Huh-7 [8]": {"tested_on": "Huh-7", "assay": "Induction of apoptosis in human Huh-7 cells assessed as early apoptotic cells at 2 uM measured after 48 hrs by Annexin V-PE staining based flow cytometry analysis (reference value: 0.88%)", "type": "functional"}, "Huh-7 [9]": {"tested_on": "Huh-7", "assay": "Induction of apoptosis in human Huh-7 cells assessed as early apoptotic cells at 4 uM measured after 48 hrs by Annexin V-PE staining based flow cytometry analysis (reference value: 0.88%)", "type": "functional"}, "Huh-7 [10]": {"tested_on": "Huh-7", "assay": "Induction of apoptosis in human Huh-7 cells assessed as necrotic cells at 8 uM measured after 48 hrs in presence of Z-VAD by Annexin V-PE staining based flow cytometry analysis (reference value: 3.37%)", "type": "functional"}, "Huh-7 [11]": {"tested_on": "Huh-7", "assay": "Induction of mitochondrial ROS release in human Huh-7 cells at 2 uM measured after 24 hrs in presence of […] by fluorescent microscopic analysis", "type": "functional, cell-based"}}, "note": "Calls of active or inactive are those of the source. The calls are words filed in the database; no cut-off is given here."}
{"smiles": "COc1ccc(COc2cccc3c2C(=O)c2c(OCc4ccc(OC)cc4)cc(C(=O)NCCNCCO)cc2C3=O)cc1", "values": [{"measurement": "Activity", "setting": "Huh-7 [1]", "result": "Active"}, {"measurement": "Activity", "setting": "Huh-7 [2]", "result": "Active"}, {"measurement": "Activity", "setting": "Huh-7 [3]", "result": "inactive"}, {"measurement": "Activity", "setting": "Huh-7 [4]", "result": "inactive"}, {"measurement": "Activity", "setting": "Huh-7 [5]", "result": "Active"}, {"measurement": "Activity", "setting": "Huh-7 [6]", "result": "Active"}, {"measurement": "Activity", "setting": "Huh-7 [7]", "result": "Active"}, {"measurement": "Activity", "setting": "Huh-7 [8]", "result": 65.4, "unit": "%"}, {"measurement": "Activity", "setting": "Huh-7 [9]", "result": 43.64, "unit": "%"}, {"measurement": "Activity", "setting": "Huh-7 [10]", "result": 10.59, "unit": "%"}, {"measurement": "Activity", "setting": "Huh-7 [11]", "result": "inactive"}]}
